34 compounds from PubChem BioAssay AID463206 (Broad Institute, 2010) can be followed below.

Calls of active or inactive are those of the source.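 Rule for the calls: active = caspase luminescence falls with dose and the half-maximal concentration AC50 from the fitted curve is at or below a set limit; inconclusive = flat fit at 30 to 70% signal loss, or invalid fit; inactive = AC50 above the limit, or signal rises instead.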

The subject of this assay is INS-1E cytokine-induced caspase-3/7, Caspase-Glo luminescence, 48 h. As to the kind of experiment: suppression of cytokine-driven beta-cell apoptosis – INS-1E rat cells, luminescence, orthogonal assay for beta-cell apoptosis protection project, dose response (AID 463206).

Take `Oc1ccc(Br)cc1-c1cc(-c2ccc(Cl)cc2)n[nH]1`: the AC50 was > 26 µM (inactive). In the case of `Cc1ccc2c(c1)N(C)/C(=C/c1cccc[n+]1CCO)S2`, the AC50 is > 26 µM (inactive). `Cc1ccccc1NC1=C/C(=N\S(=O)(=O)c2cccs2)c2ccccc2C1=O`: the AC50 was > 26 µM (inactive). To `Oc1ccc(COCc2ccccc2)c2cccnc12` belongs > 26 µM (inactive); to `CCn1cc(/C=C/c2cc[n+](C)cc2)c2ccccc21`, > 26 µM (inactive). The result for `O=C(CCCCC(=O)Nc1ccc(F)cc1F)Nc1ccc(F)cc1F` reads > 26 µM (inactive); that for `Cc1ccc(Nc2c3c(nc4ccccc24)CCC3)cc1`, > 26 µM (inactive). The result for `COc1cc(NC(=O)COc2cc(O)c3c(c2)OC(C)(C)CC3=O)cc(OC)c1OC` reads > 26 µM (inactive). In the case of `CCN(CC)CCNC(=O)c1ccc2c(c1NCCO)C(=O)c1ccccc1C2=O`, the AC50 is > 26 µM (inactive). The result for `CCCCCCCCCCCCCCCC[N+](C)(C)C` reads > 26 µM (inactive). With `O=C(NCC(c1ccco1)N1CCCC1)c1ccc(Cl)c(S(=O)(=O)N2CCc3ccccc32)c1` (centres undefined), the AC50 was > 26 µM (inactive). The result for `CCOC(=O)C(NCCc1ccc(F)cc1)(NC(=O)CC)C(F)(F)F` (centres undefined) reads > 26 µM (inactive). The result for `C=CCn1c(C)c(/C=C/c2cc[n+](C)cc2)c2ccccc21` reads > 26 µM (inactive); that for `COc1ccc(C2NCCc3c2[nH]c2ccccc32)cc1COc1ccc(F)cc1` (centres undefined), > 26 µM (inactive); that for `Cc1ccc(/C=C/C(=O)c2ccc([N+](=O)[O-])o2)cc1`, > 26 µM (inactive). To `Cc1ccc2c(c1)N(C(=O)CCC(=O)NCCCN1CCC(Cc3ccccc3)CC1)CCO2` belongs 10.8 µM; to `Cc1ccc(Nc2c(-c3ccccn3)nc3ccc(C)cn23)cc1`, > 26 µM (inactive). As to `CC(Oc1cccc(Cl)c1)C(=O)Nc1cc(S(=O)(=O)N2CCOCC2)ccc1N1CCCCC1` (centres undefined), the AC50 was > 26 µM (inactive).

`CCN1CCN(Cc2ccc(NC(=O)c3cc(NC(=O)c4cncc(-c5ccc(C#N)cc5)c4)cc(OC)c3)cc2C(F)(F)F)CC1`: the AC50 was > 26 µM (inactive). The result for `COc1ccc(Cn2c(SCc3cc(C)ccc3C)nc3cc(OC)c(OC)cc3c2=N)cc1` reads > 26 µM (inactive); that for `COc1ccc(NC(=O)/C(Cl)=C(/Cl)S(=O)Cc2ccccc2)cn1` (centres undefined), > 26 µM (inactive). The result for `O=C(N/N=C/c1ccccc1O)C1CC(=O)N(c2ccc(Cl)cc2)C1` (centres undefined) reads > 26 µM (inactive); that for `O=c1c(Cl)c2oc3ccccc3nc-2c2ccccc12`, > 26 µM (inactive); that for `CC[N+](C)(CC)CCC(c1ccccc1)C1CCCCC1` (centres undefined), > 26 µM (inactive). To `Cc1cc(C(=O)N/N=C/c2cc(Br)ccc2OC(=O)c2ccccc2)n[nH]1` belongs > 26 µM (inactive). Consider `CCCCCc1cc(=O)oc2c(C(CCN3CCCCC3)c3ccc4c(c3)OCO4)c(OC)cc(OC)c12` (centres undefined), for which the AC50 is > 26 µM (inactive). With `CCc1ccc(S(=O)(=O)Nc2ccc(O)c3ccccc23)cc1`, the AC50 is > 26 µM (inactive). The result for `COC(=O)c1sccc1S(=O)(=O)Nc1ccc(N2CCCCC2)cc1` reads > 26 µM (inactive); that for `NC(=O)c1c(-c2ccc(Cl)cc2Cl)csc1NC(=O)Cc1ccccc1`, > 26 µM (inactive).

Take `Nc1c(Cl)ncnc1N/N=C/c1ccc2ccccc2n1`: the AC50 was > 26 µM (inactive).

Take `COc1ccc(-n2c(-c3ccc(Br)cc3)c[n+]3c2CCc2ccccc2-3)cc1`: the AC50 was > 26 µM (inactive).

For `CCc1cc[n+](C2=C([O-])c3ccccc3C(=O)/C2=N\S(=O)(=O)c2cccs2)cc1`, the AC50 is > 26 µM (inactive). The result for `CC(C)Oc1ccc(C(CCN)C2CCCCC2)cc1` (centres undefined) reads > 26 µM (inactive); that for `O=C(N/N=C\c1cc(Br)ccc1O)c1ccc(S(=O)(=O)N2CCCCC2)cc1`, > 26 µM (inactive).

For orientation: AC50 means the concentration at which the activity in the assay is half-maximal.
